Data: US20130315920A1, “Cross Protective Epitopes of Aspergillus Fumigatus and Candida Albicans” (Cell Medica Limited, priority 2010, published 2013)

What was measured:
[1] = tested on: inactivated A. fumigatus; assay: Peptide-specific T-cell clones stimulated with DC incubated with inactivated A. fumigatus (resting conidia, germinating conidia, hyphae); format: cell-based, Aspergillus fumigatus
Description: Response of Crf1 peptide-specific T-cell clones to stimulation with native A. fumigatus antigen. (a) T-cell clones from different donors specific for p1, p22, p27, p41 and p59 that responded to stimulation with Crf1 mRNA-transfected DC were stimulated with A. fumigatus cell extract or (b) inactivated germinating A. fumigatus conidia. IFN-γ values are given after subtraction of the negative control. Shown is 1 clone per antigen and donor (representative experiments, n≧3). (c) Crf1 p41-specific T-cell clones respond to stimulation with DC incubated overnight with germinating A. fumigatus conidia or hyphae but not to resting conidia. T cell clones were stimulated with A. fumigatus inactivated 0 h (resting conidia), 6 h (germinating conidia) or 12 h (hyphae) after incubation in growth medium.
(§1) T-cell cloning was performed as described in below. T-cell clones were stimulated either with mature peptide-pulsed (2.5 μg/ml) or Crf1 mRNA-transfected DC, immature DC incubated for 24 h with A. fumigatus cell extract (20 μg/ml) in the presence of cytokine maturation cocktail or immature DC incubated for 24 h with inactivated A. fumigatus or C. albicans fungus (multiplicity of infection 3) in a R:S ratio of 5:1.
Fungal extracts were generated as described^48 and protein content was measured by Bradford protein assay (Perbio Science) according to the manufacturers' instructions. […]

[2] = tested on: DC transfected with Crf1 mRNA; assay: Peptide-specific T-cell clones stimulated with Crf1 mRNA-transfected DC (IFN-γ); format: cell-based, human
Experimental: as §1
For T-cell cloning 6×10^7 PBMC were stimulated overnight with 5 μg/ml peptide and 1 μg/ml CD40 antibody (HB14, Miltenyi Biotec). Cells were labelled with anti-CD154^+ microbeads and isolated by magnetic cell separation according to the manufacturers' instructions (Miltenyi Biotec). Selected cells were cultured with γ-irradiated autologous PBMC (ratio 1:50) and cytokines were supplemented as described above. On d14, T-cell clones were generated by limiting dilution in 96-well plates and expanded using the rapid expansion protocol previously described^50.
A. fumigatus Crf1 cDNA was cloned into the pGEM4Z vector (provided by Kris Thielemans) and in vitro transcribed using mMESSAGE mMACHINE T Ultra Kit (Ambion) according to the manufacturers' instructions. Crf1 was fused to the N-terminal domain of the invariant chain to enhance antigen presentation by MHC class II^51,52. Maturated DC were electroporated with 15 μg mRNA at 300V and 150 μF using the EQUIBIO EasyjecT Plus® apparatus (EQUIBIO) in serum-free medium (OptiMEM, Gibco)^41.

[3] = tested on: PBMC from additional donors; assay: Verification of HLA restriction by stimulation of PBMC from additional donors; format: cell-based, human; conditions: data not shown
Description: To evaluate the utility of the Crf1 p41 epitope for potential clinical application, we defined the HLA restriction of Crf1 p41-specific CD4^+ T clones from different donors by stimulation with peptide-pulsed partially matched LCLs. […] As presentation of the Crf1 p41 peptide could also be mediated by other MHC class II alleles, we verified the HLA restriction by stimulation of PBMC from additional donors.

[4] = tested on: A. fumigatus cell extract; assay: Peptide-specific T-cell clones stimulated with DC incubated with A. fumigatus cell extract (IFN-γ); format: cell-based, Aspergillus fumigatus; conditions: extract 20 μg/ml, DC incubated 24 h
Experimental: as §1
Fungal extracts were generated as described^48 and protein content was measured by Bradford protein assay (Perbio Science) according to the manufacturers' instructions. For inactivated fungus Aspergillus conidia were inoculated in growth medium^49 and cultured for 0, 4, 8 or 12 h. Candida species were cultured for 24 h. Fungi were inactivated with 70% ethanol. Ethanol-inactivated fungi and extracts were validated for sterility by subculturing on Sabouraud dextrose agar.

[5] = tested on: A. flavus, A. nidulans, A. niger, A. terreus, C. glabrata and C. krusei; assay: Cross-reactivity of T-cell clones to other Aspergillus and Candida species; format: cell-based; conditions: data not shown
Description: We then analyzed if our T-cell clones might cross-react to other clinically relevant Aspergillus and Candida species such as A. flavus, A. nidulans, A. niger, A. terreus, C. glabrata and C. krusei because they also express proteins with some sequence similarity to A. fumigatus Crf1. […] Thus, p41-specific TH1 cells represent a core repertoire in antifungal immune responses being reactive to A. fumigatus but also to C. albicans, the second most important pathogenic fungus in HSCT patients.
Fungal strains A. fumigatus D141, A. nidulans FGSCA4, C. albicans SC5314 and clinical isolates A. fumigatus, A. terreus, A. flavus, A. niger, C. albicans, C. glabrata and C. krusei were provided by Sven Krappmann, Joachim Morschhäuser and Reno Frei.

[6] = tested on: T-cell lines of 7 donors with different MHC class II alleles; assay: Epitope mapping of Crf1 peptides with IFN-γ ELISPOT; format: cell-based, human; conditions: 7 donors tested, peptide-pulsed autologous DC
Description: As the identification of potential protective fungal antigens is rather intricate due to the extensiveness of fungal genomes, we analyzed 6 different A. fumigatus recombinant proteins based on their previously reported immunogeneic reactivity in mice and humans^7,10. […] By contrast, GPI-anchored extracellular cell wall glucanase Crf1 and secreted protein peptidase induced high IFN-γ in 6 of 7 and 5 of 10 tested donors, respectively. The response was mediated by CD4^+ TH1 cells, as MHC class II blocking antibody nearly abrogated IFN-γ release (data not shown). Due to the broad response and the sequence similarity to the C. albicans orthologue Crh1, we focused in subsequent experiments on the protein Crf1. By epitope mapping of 7 healthy individuals with different MHC class II alleles, we identified 10 potential candidate epitopes (Table 1). Based on the results obtained by epitope mapping, the probability of antigen presentation by certain MHC class II alleles assessed by epitope prediction^11, previously reported immunogeneic reactivity^12 and sequence similarity to the C. albicans homologue Crh1, we then generated CD4^+ TH1 T-cell clones specific for the peptides p1, p22, p27, p41, p48, p59, p69 and p84 (FIG. 1a and Table 1).
A peptide library covering the complete Crf1 sequence consisting of 94 15-mer peptides overlapping by […] (aa) was divided into sub-pools of 10 peptides and 94 single peptides (p1-p94) (PANATecs). 3 11-mer peptides of p40/41 overlapping by 2aa ([…], […], HTYTIDWTKDA) were obtained from JPT Peptide Technologies.
For analysis of recombinant proteins and epitope mapping, T-cell lines were generated by incubation of 1×10^7 PBMC per well in 6-well cell culture plates with 5 μg/ml protein or peptide for 7d in the presence of 5 U/ml IL-2 (Proleukin, Chiron). Antigen specificity was analyzed by IFN-γ ELISA^42 after restimulation with autologous monocytes incubated overnight with 5 μg/ml protein in a responder to stimulator (R:S) ratio of 5:1. Epitope mapping was performed by IFN-γ ELISPOT^39 after stimulation with peptide-pulsed autologous DC at a R:S ratio of 10:1.

“HTYTIDWTKDAVTWS (Peptide found in the Crf1 protein of Aspergillus fumigatus) [p41, Crf1 aa 161-175]” was tested, and the “Activation of peptide-specific T-cell clones by resting conidia” value ([1]; A. fumigatus inactivated 0 h (resting conidia)) was “resting conidia were not able to activate peptide-specific T-cell clones”, the “Activation of peptide-specific T-cell clones by germinating conidia and hyphae” value ([1]; A. fumigatus inactivated 6 h (germinating conidia) or 12 h (hyphae)) was “germinating conidia induced similar T-cell responses as outgrown hyphae” and the “Response of peptide-specific CD4+ T-cell clones to endogenously processed antigen” value ([2]; all donors) was “All generated p41-specific CD4^+ T-cell clones were activated readily”. The “Number of T-cell clones reacting to Crf1 mRNA-transfected DC/number of peptide-specific T-cell clones” value (shortened to “Number of T-cell clones reacting”) ([2]; donor 1) was 11/11, the “Number of T-cell clones reacting” value ([2]; donor 2) was 16/16 and the “Number of T-cell clones reacting” value ([2]; donor 4) was 2/2. For the same sequence, the “Number of T-cell clones reacting” value ([2]; donor 7) was 4/4, the “Number of T-cell clones reacting” value ([2]; donor 10) was 3/3 and the “Reaction of PBMC to the epitope” value ([3]; 5 donors lacking HLA-DRB1*03, 04 and 13) was “all 5 donors lacking HLA-DRB1*03, 04 and 13 MHC class II alleles did not”. For the same sequence, the “Reaction of PBMC to the epitope” value ([3]; HLA-DRB1*03, 04 and 13 donors) was “All HLA-DRB1*03, 04 and 13 donors reacted to the Crf1 p41 epitope”, the “Response of peptide-specific T-cell clones to A. fumigatus extract” value [4] was “All Crf1 p41-specific T-cell clones of all 5 donors” and the “Cross-reactivity to other Aspergillus and Candida species” value [5] was “none of the Crf1 p27-, p41- and p59-specific T-cell clones showed any cross-reactivity to these fungi”. It also gave a No. of responders [6] of 5.
